# Literature values in patent US20240237652A1, “Biocidal Composition and Method” (ARXADA, LLC, priority 2021, published 2024).
# Key:
# [1] = neutral pH
# [2] = tested on: bacteria, fungi, and yeast
Compound,solubility in water [1] [ppm],amount required for a reliable and quick biocidal activity [2] [ppm]
Zinc pyrithione [ZPT],8,–
"O=c1[nH]sc2ccccc12 [BIT, 1,2-benzisothiazolin-3-one]",–,≤ 500
